One test concerns the target T1, AChE (Homo sapiens, UniProt P22303).
T1 construct: purchased Sigma-Aldrich (Germany)
Kind of test: AChE inhibition assay (Ellman's method). The class given is biochemical. As to the method: The AChE inhibitory activity of the synthesized compounds was determined using Ellman's method, with slight modifications to optimize experimental conditions.[35] The assay was performed following the procedures described in our previous study.[36]
On the technique in general: Ellman's reagent forms a yellow product with free thiols.

The next test deals with T2, MAGL (Homo sapiens, UniProt Q99685).
T2 construct: purchased Finetest (China)
T2 sequence (Q99685 1-303): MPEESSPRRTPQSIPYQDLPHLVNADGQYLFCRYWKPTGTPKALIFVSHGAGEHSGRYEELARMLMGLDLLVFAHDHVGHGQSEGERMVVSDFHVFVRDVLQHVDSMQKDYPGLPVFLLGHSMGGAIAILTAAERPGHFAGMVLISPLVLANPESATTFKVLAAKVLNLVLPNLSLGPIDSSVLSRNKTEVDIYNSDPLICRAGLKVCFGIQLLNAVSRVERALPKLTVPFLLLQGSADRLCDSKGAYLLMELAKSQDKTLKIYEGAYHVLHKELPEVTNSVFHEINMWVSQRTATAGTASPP
The experiment in a line: biochemical. As for the experimental part:
The MAGL inhibitory activity of the synthesized compounds was assessed using a spectrophotometric assay, employing 4-NPA as a surrogate substrate. The experimental procedure was adapted from a previously published protocol with minor modifications.[37]
The assay was conducted at room temperature using an ELISA reader (EMR-500) with a 96-well plate, with a total reaction volume of 200 μL per well. The reaction system comprised 10 mM tris–HCl buffer (pH 7.2), 1 mM EDTA, and 0.1 mg mL^−1 bovine serum albumin. […] The negative control was prepared by replacing the inhibitor with 10 μL of DMSO. The enzymatic reaction was initiated by adding 40 μL of MAGL enzyme solution (11 ng per well), while the blank control used buffer instead of the enzyme. The reaction mixtures were incubated for 30 minutes, and absorbance was measured at 405 nm. Each sample was tested in triplicate, and IC50 values were determined from the obtained data using GraphPad Prism 8.4.3.

The mark [1] stands for this setting: 4-NPA 100 μM, 30 min, absorbance 405 nm, triplicate, read-out: IC50 ± SD MAGL.
The mark [2] stands for this setting: Ellman's method, read-out: IC50 ± SD AChE.

Molecules are shown by their SMILES. Where two headings read alike, the source gives them in different places.

Consider 14 molecules from PMC12090193, “Flavonoid carbamate hybrids: design, synthesis, and evaluation as multi-target enzyme inhibitors for Alzheimer's disease” (RSC Advances, 2025).

T1 sequence (P22303 32-614): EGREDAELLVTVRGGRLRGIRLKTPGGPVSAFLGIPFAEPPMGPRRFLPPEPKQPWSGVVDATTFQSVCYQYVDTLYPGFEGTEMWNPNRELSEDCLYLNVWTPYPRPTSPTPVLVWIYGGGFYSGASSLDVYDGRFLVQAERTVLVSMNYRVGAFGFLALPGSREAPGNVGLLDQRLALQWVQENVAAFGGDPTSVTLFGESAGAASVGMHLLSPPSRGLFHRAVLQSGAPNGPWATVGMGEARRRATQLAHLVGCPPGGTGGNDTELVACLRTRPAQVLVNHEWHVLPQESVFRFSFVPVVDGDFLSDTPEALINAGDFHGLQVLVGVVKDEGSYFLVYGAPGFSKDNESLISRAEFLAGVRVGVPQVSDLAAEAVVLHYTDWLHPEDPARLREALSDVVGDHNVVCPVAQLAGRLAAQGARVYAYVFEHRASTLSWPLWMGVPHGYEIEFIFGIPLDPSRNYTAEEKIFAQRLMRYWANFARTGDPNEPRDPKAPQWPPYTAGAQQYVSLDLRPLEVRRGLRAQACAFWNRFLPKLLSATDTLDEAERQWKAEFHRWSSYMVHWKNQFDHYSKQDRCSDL

With `CCN(C)C(=O)Oc1ccc(-c2oc3cc(OC(=O)N(C)CC)cc(OC(=O)N(C)CC)c3c(=O)c2OC(=O)N(C)CC)cc1` [Compound K6, 2-(4-((Ethyl(methyl)carbamoyl)oxy)phenyl)-4-oxo-4H-chromene-3,5,7-triyl tris(ethyl(methyl)carbamate)], the concentration for half-maximal inhibition (IC50) is above 200 µM on AChE and 178 ± 9.12 µM at MAGL.

With `O=c1c(O)c(-c2ccc(O)cc2)oc2cc(O)cc(O)c12` [Kaempferol, reference compound], the half-maximal inhibitory concentration (IC50) on AChE is 226 ± 17.9 µM; on MAGL (setting [1]), 189 ± 7.89 µM.

With `CN(C)C(=O)Oc1cc(O)c2c(=O)cc(-c3ccccc3)oc2c1` [Compound C1, 5-Hydroxy-4-oxo-2-phenyl-4H-chromen-7-yl dimethylcarbamate], the half-maximal inhibitory concentration (IC50) is 188 ± 16.2 µM at AChE and 72.2 ± 5.34 µM on MAGL.

Take `CN(C)C(=O)Oc1ccc(-c2oc3cc(OC(=O)N(C)C)cc(O)c3c(=O)c2OC(=O)N(C)C)cc1` [Compound K1, 2-(4-((Dimethylcarbamoyl)oxy)phenyl)-5-hydroxy-4-oxo-4H-chromene-3,7-diyl bis(dimethylcarbamate)]: the results for the IC50 against AChE and at MAGL were 100 ± 7.85 µM and 126 ± 8.28 µM, respectively.

On to `CCN(CC)C(=O)Oc1ccc(-c2oc3cc(OC(=O)N(CC)CC)cc(OC(=O)N(CC)CC)c3c(=O)c2OC(=O)N(CC)CC)cc1` [Compound K4, 2-(4-((Diethylcarbamoyl)oxy)phenyl)-4-oxo-4H-chromene-3,5,7-triyl tris(diethylcarbamate)], for which the IC50 on AChE (setting [2]) and at MAGL (setting [1]) was above 200 µM in each case.

As for `O=c1cc(-c2ccccc2)oc2cc(O)cc(O)c12` [Chrysin, reference compound], the results for the IC50 on AChE (setting [2]) and at MAGL (setting [1]) were 157 ± 11.7 µM and 169 ± 11.4 µM, respectively.

Take `CCN(C)C(=O)Oc1cc(OC(=O)N(C)CC)c2c(=O)cc(-c3ccccc3)oc2c1` [Compound C6, 4-Oxo-2-phenyl-4H-chromene-5,7-diyl bis(ethyl(methyl)carbamate)]: the 50% inhibitory concentration (IC50) at AChE and on MAGL was above 200 µM in each case.

Take `CCN(C)C(=O)Oc1ccc(-c2oc3cc(OC(=O)N(C)CC)cc(O)c3c(=O)c2OC(=O)N(C)CC)cc1` [Compound K5, 2-(4-((Ethyl(methyl)carbamoyl)oxy)phenyl)-5-hydroxy-4-oxo-4H-chromene-3,7-diyl bis(ethyl(methyl)carbamate)]: the half-inhibitory concentration (IC50) on AChE was above 200 µM; at MAGL, 60.1 ± 4.74 µM.

With `CCN(CC)C(=O)Oc1cc(OC(=O)N(CC)CC)c2c(=O)cc(-c3ccccc3)oc2c1` [Compound C4, 4-Oxo-2-phenyl-4H-chromene-5,7-diyl bis(diethylcarbamate)], the concentration for half-maximal inhibition (IC50) at AChE (setting [2]) and at MAGL (setting [1]) was above 200 µM in each case.

Turning to `CCN(CC)C(=O)Oc1ccc(-c2oc3cc(OC(=O)N(CC)CC)cc(O)c3c(=O)c2OC(=O)N(CC)CC)cc1` [Compound K3, 2-(4-((Diethylcarbamoyl)oxy)phenyl)-5-hydroxy-4-oxo-4H-chromene-3,7-diyl bis(diethylcarbamate)], the IC50 on AChE (setting [2]) worked out at 146 ± 10.4 µM; at MAGL (setting [1]), 61.6 ± 3.01 µM.

As to `CN(C)C(=O)Oc1ccc(-c2oc3cc(OC(=O)N(C)C)cc(OC(=O)N(C)C)c3c(=O)c2OC(=O)N(C)C)cc1` [Compound K2, 2-(4-((Dimethylcarbamoyl)oxy)phenyl)-4-oxo-4H-chromene-3,5,7-triyl tris(dimethylcarbamate)], the half-inhibitory concentration (IC50) on AChE and on MAGL was above 200 µM throughout.

Consider `CCN(CC)C(=O)Oc1cc(O)c2c(=O)cc(-c3ccccc3)oc2c1` [Compound C3, 5-Hydroxy-4-oxo-2-phenyl-4H-chromen-7-yl diethylcarbamate], for which the figures for the half-maximal inhibitory concentration (IC50) on AChE (setting [2]) and at MAGL (setting [1]) were 61.8 ± 1.42 µM and 22.9 ± 1.3 µM, respectively.

For the molecule `CCN(C)C(=O)Oc1cc(O)c2c(=O)cc(-c3ccccc3)oc2c1` [Compound C5, 5-Hydroxy-4-oxo-2-phenyl-4H-chromen-7-yl ethyl(methyl)carbamate], the figures for the IC50 against AChE and against MAGL were 89.4 ± 5.66 µM and 46.6 ± 2.23 µM, respectively.

Consider `CN(C)C(=O)Oc1cc(OC(=O)N(C)C)c2c(=O)cc(-c3ccccc3)oc2c1` [Compound C2, 4-Oxo-2-phenyl-4H-chromene-5,7-diyl bis(dimethylcarbamate)], for which the IC50 was above 200 µM against AChE and 96.4 ± 1.54 µM at MAGL.

What is called IC50 is the concentration at which inhibition is half-maximal.
